Consider one compound from ChEMBL document CHEMBL2073858, “Cloning and characterization of a pH-sensing regulatory factor that modulates transport activity of the human H+/peptide cotransporter, PEPT1” (Biochem Biophys Res Commun, 1997).

This assay deals with T1, Solute carrier family 15 member 1 (Homo sapiens) (UniProt P46059).
T1 sequence (whole entry): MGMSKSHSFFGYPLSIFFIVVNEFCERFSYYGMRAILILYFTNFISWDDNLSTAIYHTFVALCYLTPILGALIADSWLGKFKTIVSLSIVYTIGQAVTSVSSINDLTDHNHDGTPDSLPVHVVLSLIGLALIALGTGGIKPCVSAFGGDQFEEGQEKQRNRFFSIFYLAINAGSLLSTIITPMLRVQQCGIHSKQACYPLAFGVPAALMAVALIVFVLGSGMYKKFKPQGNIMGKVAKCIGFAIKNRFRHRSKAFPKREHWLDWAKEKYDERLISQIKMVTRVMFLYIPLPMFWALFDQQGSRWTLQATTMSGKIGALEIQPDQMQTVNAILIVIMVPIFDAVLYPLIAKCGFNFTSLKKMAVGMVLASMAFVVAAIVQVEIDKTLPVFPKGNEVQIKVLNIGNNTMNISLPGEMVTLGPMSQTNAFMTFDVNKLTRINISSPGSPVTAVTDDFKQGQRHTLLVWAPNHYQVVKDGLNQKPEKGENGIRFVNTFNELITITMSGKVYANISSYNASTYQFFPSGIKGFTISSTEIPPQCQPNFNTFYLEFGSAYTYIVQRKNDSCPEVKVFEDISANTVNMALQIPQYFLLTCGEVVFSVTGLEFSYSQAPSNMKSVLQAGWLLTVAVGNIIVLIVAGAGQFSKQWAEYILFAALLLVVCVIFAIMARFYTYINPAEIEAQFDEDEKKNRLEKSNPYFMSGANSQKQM
In words: TP_TRANSPORTER: uptake in Xenopus laevis oocytes. It counts as functional, cell-based. As to conditions: Oocyte.

Structures are written as SMILES. Square brackets hold non-standard residues; d marks the D form. Peptide text beside a SMILES is read from it. Sar = CNCC(=O)O

Consider `CN(CC(=O)O)C(=O)CN` (H-Gly-[Sar]-OH), for which the Activity entry was “substrate [+]”.
